Where two headings read alike, the source gives them in different places.
What was measured:
[1] = for Rabbit 1 concentration in lung tissue / Rabbit 2 concentration in lung tissue: in vivo; for amount formed on a per-site basis in lung tissue: lung concentration divided by number of equivalent adamantyl sites
M. tuberculosis H37Rv = experiment: M. tuberculosis growth inhibition assay; conditions: read-out: Mtb IC90; concentration that inhibits 90% of growth, OD600, 5 days; ± standard error
B. subtilis = B. subtilis growth inhibition assay; format: cell-based, Bacillus subtilis; conditions: read-out: Bs IC50
E. coli (K12) = experiment: E. coli growth inhibition assay; format: cell-based, Escherichia coli; conditions: read-out: Ec IC50
M. smegmatis = M. smegmatis growth inhibition assay; format: cell-based, Mycobacterium smegmatis; conditions: read-out: Ms IC50, OD600, 48 h, ± standard error
human CYP2D6 = conditions: 30 min incubation with CYP2D6; cited from earlier work
[2] = rats; cited from earlier work
[3] = calculated, Pipeline Pilot program; cited from earlier work
human CYP2C19 = conditions: 30 min incubation with CYP2C19; cited from earlier work
[4] = dogs; cited from earlier work
[5] = growth inhibition, OD600, 12 h, ± standard error

Compound	Rabbit 1 concentration in lung tissue [1]	Rabbit 2 concentration in lung tissue [1]	IC90 (M. tuberculosis H37Rv) [µM]	IC50 (B. subtilis; [5]) [µM]	IC50 (E. coli (K12); [5]) [µM]	IC50 (M. smegmatis) [µM]	IC50 (B. subtilis; Bacillus subtilis, 12 h) [µM]	IC50 (E. coli (K12); Escherichia coli, 12 h) [µM]	amount formed on a per-site basis in lung tissue [1]	SQ109 remaining (human CYP2D6) [%]	[14C-SQ109] half-life [2] [h]	pKa (adamantylamine NH) [3]	pKa (geranylamine NH) [3]	Rabbit 1 concentration in lung tissue ([1]; female, New Zealand White)	Rabbit 2 concentration in lung tissue ([1]; female, New Zealand White)	SQ109 remaining (human CYP2C19) [%]	[14C-SQ109] half-life [4] [h]
CC(C)=CCC/C(C)=C/CN [Compound 17, geranylamine]	BLQ	BLQ	> 25	> 500	> 500	> 500	–	–	–	–	–	–	–	–	–	–	–
CC(C)=CCC/C(C)=C/C=NO [Compound 15a, geranial oxime]	BLQ	BLQ	> 25	> 500	> 500	> 500	–	–	–	–	–	–	–	–	–	–	–
CC(C)=CCC/C(C)=C/C(=O)O [Compound 14, geranic acid]	BLQ	BLQ	> 25	–	–	–	> 500	> 500	–	–	–	–	–	–	–	–	–
O=C1C2CC3CC(C2)CC1C3 [Compound 19, 2-adamantanone]	–	–	> 25	–	–	–	> 500	> 500	–	–	–	–	–	–	–	–	–
CC(C)=CCC/C(C)=C/CNCCNC1C2CC3CC1CC(C2)C3O (stereo not drawn) [Compound 23, (1r,3r,5r,7r)-6-((2-(((E)-3,7-Dimethylocta-2,6-dien-1-yl)-amino)ethyl)amino)adamantan-2-ol]	1200 (210) ng/g	3500 (1200) ng/g	> 25	184 ± 4.5	52 ± 2.5	68 ± 2.5	–	–	6.8 µM	–	–	–	–	–	–	–	–
CC(C)=CCC/C(C)=C/CNCCNC1C2CC3CC(C2)CC1C3 (stereo not drawn) [Compound 1, SQ109]	–	–	1 ± 0.05	–	–	–	16 ± 0.14	15 ± 0.26	–	0.8	> 5	12.7	5.63	37000 (4600) ng/g	45000 (21000) ng/g	45	> 5
CC(C)=CCC/C(C)=C/CNCCNC1[C@H]2C[C@@H]3C[C@H](C2)C(O)[C@H]1C3 (stereo partly drawn) [Compound 24, (1R,3S,5S,7R)-4-((2-(((E)-3,7-Dimethylocta-2,6-dien-1-yl)-amino)ethyl)amino)adamantan-2-ol]	–	–	6.2 ± 0.27	–	–	–	166 ± 0.5	158 ± 4.5	~ 1 μM	–	–	–	–	820 (170) ng/g	2100 (680) ng/g	–	–
NCCNC1C2CC3CC(C2)CC1C3 (stereo not drawn) [Compound 7, N′-adamantylethylenediamine]	5500 (360) ng/g	7700 (2200) ng/g	> 25	> 500	> 500	> 500	–	–	–	–	–	–	–	–	–	–	–
NC1C2CC3CC(C2)CC1C3 (stereo not drawn) [Compound 18, 2-aminoadamantane]	–	–	> 25	–	–	–	> 500	> 500	–	–	–	–	–	170(49) ng/g	270(27) ng/g	–	–
ON=C1C2CC3CC(C2)CC1C3 [Compound 16, adamantan-2-one oxime]	BLQ	BLQ	> 25	–	–	–	> 500	> 500	–	–	–	–	–	–	–	–	–
CC(C)=CCC/C(C)=C/CNCCN [Compound 20, geranylethylenediamine]	310(14) ng/g	330 (54) ng/g	> 25	> 500	> 500	> 500	–	–	–	–	–	–	–	–	–	–	–
C/C(=C\CNCCNC1C2CC3CC(C2)CC1C3)CCC(=O)C(C)C (stereo not drawn) [Compound 12, (E)-8-((2-(((1r,3r,5r,7r)-adamantan-2-yl)amino)-ethyl)amino)-2,6-dimethyloct-6-en-3-one]	91 (20) ng/g	220 (110) ng/g	17 ± 4.5	176 ± 5.1	57 ± 2.3	22 ± 1.5	–	–	–	–	–	–	–	–	–	–	–
C/C(=C\CC/C(C)=C/CNCCNC1C2CC3CC(C2)CC1C3)CO (stereo not drawn) [Compound 9, (2E,6E)-8-((2-(((1r,3r,5r,7r)-Adamantan-2-yl)amino)ethyl)-amino)-2,6-dimethylocta-2,6-dien-1-ol]	720 (47) ng/g	850 (190) ng/g	> 24	> 500	267 ± 4.3	55 ± 1.4	–	–	–	–	–	–	–	–	–	–	–
CC(C)=CCC/C(C)=C/C=O [Compound 13, geranial]	BLQ	BLQ	> 25	> 500	> 500	> 500	–	–	–	–	–	–	–	–	–	–	–
